Experiment [1] has as its system Aβ40 in SY5Y-BACEGFP-SEAPAPPwt cells. Kind of experiment: Aβ40 ELISA (BioSource) in SY5Y-BACEGFP-SEAPAPPwt cells. Format: cell-based. The following applies: SAR study, 8 concentrations (30-0.01 μM), SY5Y-BACEGFP-SEAPAPPwt cells. The protocol:
FIG. 11. 5 LDDN compounds reduce Aβ40 in SYSY-BACEGFP-SEAPAPPwt cells. sAPPβ and 24-hour cell viability was performed as described in Chapter 4.1. Aβ40 ELISA was performed using the Aβ40 ELISA kit (BioSource) according to the manufacturer's protocol. Cell culture media was collected after 6 hours of treatment with 4 concentrations (30, 10, 3, 0.3 μM) of compound and diluted 3:10 prior to loading onto the Aβ ELISA plate. The data points for sAPPβ and Aβ were roughly superimposed. Data points represent mean±s.d. of 3 determinations.
(§1) FIG. 13. […] Compounds were tested in SY5Y-BACEGFP-SEAPAPPwt cells using the cell-based BACE1 assay. Select compounds were also investigated for Aβ-lowering effect using a commercial Aβ ELISA kit (BioSource). All compounds were tested at 8 concentrations (30, 10, 3, 1, 0.3, 0.1, 0.03, and 0.01 μM), and data points were analyzed with Origin software and fitted using a logistic model for IC50 determination.
In other non-limiting embodiments, the effective amount of at least one compound of Formulas I-VII, and/or a compound depicted in FIG. 19, may be correlated with the compound's ability to reduce the level of Aβ40 in an in vitro assay that measures the level of Aβ40 produced in a cell line, for example, an SY5Y-BACEGFP-SEAPAPPwt cell line. In one non-limiting example, the level of Aβ40 expressed by the cell line may be measured through the use of an Aβ40 Elisa kit (Bio Source). In one embodiment, the assay comprises incubating the Aβ40 expressing cells with a compound of Formulas I-VII, and/or a compound depicted in FIG. 19, followed by assaying the concentration of Aβ40 in the cell media. In such an assay, a greater reduction of Aβ40 concentration in the cell media following incubation with a compound compared to a control cell line not contacted with the compound is correlative with the compound's therapeutic efficacy.
The 15 LDDN compounds were tested in SY5Y-BACEGFP-SEAPAPPwt cells for their ability to reduce Aβ40 using a commercial Aβ40 ELISA kit (BioSource). SY5Y-BACEGFP-SEAPAPPwt cells were grown to 100% confluence and incubated with 4 concentrations of each compound (30, 10, 3, 0.3 μM). Cell culture media was collected after 6 hours of compound incubation and diluted 3:10 in sample diluent supplied in the Aβ40 ELISA kit. Aβ ELISA was performed according to the manufacturer's protocol. […] LDN-0057228 and LDN-0069630 are small molecules with ample chemical space for modification, and are thus considered good candidates for medicinal chemistry.
(§2) 27 structural analogs of LDN-0057228 were synthesized and tested using the cell-based BACE1 assay in SY5Y-BACEGFP-SEAPAPPwt cells (FIG. 13). 4 analogs, in addition to the parent compound, were also assessed for Aβ40 lowering activity using a commercial Aβ kit (BioSource). Because LDN-0057228 resembles CNS monoamine transporter inhibitors, this analog series was given the designation “CNS.” LDN-0057228 gave an unexpectedly low potency (IC50˜20 μM for both sAPPβ and Aβ40 reduction) compared to the ˜7 μM potency obtained using the same compound in FIG. 8.

Experiment [2] relates to sAPPβ (BACE1 cleavage of SEAP-APPwt) in SY5Y-BACEGFP-SEAPAPPwt cells. Nature of the experiment: cell-based BACE1 assay (sAPPβ modified ELISA). The following applies: for IC50 / IC50(sAPPβ): SAR study, 8 concentrations (30-0.01 μM), SY5Y-BACEGFP-SEAPAPPwt cells; for IC50: read-out: IC50(sAPPβ). The protocol:
FIG. 1. An sAPPβ assay utilized to identify inhibitors of BACE1. The assay utilizes SY5Y cells stably overexpressing BACE-GFP and SEAP-APPwt. Cells are incubated with a candidate compound for 6 hours prior to harvesting media. BACE1-mediated cleavage of APP results in the release of sAPPβ into the media. α-secretase, a competing enzyme that is non-amyloidogenic, also cleaves APP to release […]. Using an sAPPβ-specific antibody (sβwt), SEAP-sAPPβ is specifically captured in a modified ELISA assay. Detection is achieved by addition of the fluorescent alkaline phosphatase substrate, 4-methylumbelliferyl phosphate (4-MUP).
as §1
As described in the Examples below, and depicted in FIG. 1, an sAPPβ ELISA assay may comprise cells, for example, SY5Y cells, transfected with a BACE1 reporter construct, such as a GFP-tagged BACE1 (BACE-GFP), and a wild type APP reporter construct, such as a secreted alkaline phosphatase (SEAP)-tagged wild type APP (SEAP-APPwt). BACE1 cleavage of the reporter-tagged APP (e.g. SEAP-APPwt) may result in secretion into the media of SEAP-tagged sAPPβ, which may be collected and specifically captured using an sAPPβ cleavage site-specific antibody (e.g. stβwt). Following washing, a substrate may be used, for example, the fluorescent alkaline phosphatase substrate 4-methylumbelliferyl phosphate (4-MUP), to detect the captured SEAP-sAPPβ.
A cell-based modified ELISA assay for measuring sAPPβ, the secreted ectodomain of β-amyloid precursor protein (APP) following β-secretase (BACE1) cleavage, was used to identify a class of compounds that interfered with the first step of sAPPβ generation. This assay has been described in International Application PCT/US2007/015938 (Published as International Publication No. WO 08/008463), which is herein incorporated in its entirety for all purposes.
The SY5Y-BACEGFP-SEAPAPPwt cell based assay was developed to discover novel small molecule modulators of BACE1 activity. SY5Y cells were stably transfected with GFP-tagged BACE1 (BACE-GFP) and secreted alkaline phosphatase (SEAP)-tagged wildtype APP (SEAP-APPwt). BACE1 cleavage of SEAP-APPwt results in secretion into the media of SEAP-tagged sAPPβ, which is collected and specifically captured using an sAPP0 cleavage site-specific antibody (sβwt). After washing, the fluorescent alkaline phosphatase substrate 4-methylumbelliferyl phosphate (4-MUP) is used to detect the captured SEAP-sAPPβ (FIG. 1).
The 15 LDDN compounds selected based on their 3-point dose-response profile were tested at 12 concentrations (ranging from 0.1 nM to 30 μM) in the cell-based BACE1 assay. The assay was conducted in 96-well format to maximize the Z′ factor. Compounds were characterized in duplicate cell plates, each containing 12 doses of compound in triplicate. Cell viability was measured at 6 and 24 hours using Promega's Cell Titer-Glo kit according to the manufacturer's protocol. The dose-response curves for sAPPβ reduction were plotted using Origin software and fitted using a logistic model for IC50 determination.
as §2
Background: ELISA stands for enzyme-linked immunosorbent assay.

Broadly, the IC50 is the concentration needed to halve the response being measured. `Fc1ccc(C(OCCN2CCN(CCCc3ccccc3)CC2)c2ccc(F)cc2)cc1` [GBR 12909, reference compound]: the IC50 stood at 14.5 µM in experiment [1] and 34.6 µM in experiment [2].

For the compound `NC(=O)[C@@H]1CCN1CCOC(c1ccc(F)cc1)c1ccc(F)cc1` [CNS-17], the “IC50(sAPPβ)” value in experiment [2] was “inactive”.

In the case of `CNC[C@@H]1CCCN1CCOC(c1ccc(F)cc1)c1ccc(F)cc1` [CNS-3], the IC50 in experiment [1] and in experiment [2] was 11.5 µM each time.

Take `Fc1ccc(C(OCCNCCNCCCc2ccccc2)c2ccc(F)cc2)cc1` [CNS-22]: in experiment [2], the “IC50(sAPPβ)” value was “inactive”.

Turning to `NC[C@@H]1CCCN1CCOC(c1ccc(F)cc1)c1ccc(F)cc1` [CNS-6], the IC50 in experiment [2] worked out at 27.9 µM.

For the compound `O=C(CCc1ccccc1)NC[C@@H]1CCCCN1CCOC(c1ccc(F)cc1)c1ccc(F)cc1` [CNS-14], in experiment [2], the IC50 was determined as 14 µM.

Turning to `Fc1ccc(C(OCCN2CCC[C@H]2CNCCCc2ccccc2)c2ccc(F)cc2)cc1` [CNS-1], in experiment [2], the IC50 stood at 10.5 µM.

On to `NC[C@@H]1CCN1CCOC(c1ccc(F)cc1)c1ccc(F)cc1` [CNS-18], for which the IC50 in experiment [2] was more than 50 µM.

As for `NC(=O)[C@@H]1CCCN1CCOC(c1ccc(F)cc1)c1ccc(F)cc1` [CNS-16], the “IC50(sAPPβ)” value in experiment [2] was “inactive”.

Regarding BACE inhibitor IV [reference compound], the “suppression of sAPPβ generation” value in experiment [2] (10 μM, positive control, 384-well LDDN screen, on average) was more than 95%.

In the case of `Fc1ccc(C(OCCN2CCCC[C@H]2CNCCCc2ccccc2)c2ccc(F)cc2)cc1` [CNS-13], the IC50 in experiment [2] came to 9 µM.

With `CC(=O)NC[C@@H]1CCCN1CCOC(c1ccc(F)cc1)c1ccc(F)cc1` [CNS-5], the IC50 in experiment [2] stood at 20.8 µM.

Turning to `NC[C@H]1CCCN1CCOC(c1ccc(F)cc1)c1ccc(F)cc1` [CNS-10], in experiment [2], the IC50 was 38.3 µM.

In the case of `O=C(CCc1ccccc1)NCCNCCOC(c1ccc(F)cc1)c1ccc(F)cc1` [CNS-21], in experiment [2], the “IC50(sAPPβ)” value was “inactive”.

Take `Fc1ccc(C(OCCN2CCC[C@@H]2CNCCCc2ccccc2)c2ccc(F)cc2)cc1` [CNS-8]: the IC50 in experiment [2] is 5.7 µM.

Take `O=C(CCc1ccccc1)NC[C@H]1CCCN1CCOC(c1ccc(F)cc1)c1ccc(F)cc1` [CNS-9]: in experiment [2], the IC50 came out at 20.4 µM.

For `COC(=O)NC[C@@H]1CCCN1CCOC(c1ccc(F)cc1)c1ccc(F)cc1` [CNS-4], in experiment [2], the IC50 came out at 23.3 µM.

For the compound `O=C(CCc1ccccc1)NCCN(CCOC(c1ccc(F)cc1)c1ccc(F)cc1)CCOC(c1ccc(F)cc1)c1ccc(F)cc1` [CNS-23], the “IC50(sAPPβ)” value in experiment [2] is “inactive”.

With `O=C(CCc1ccccc1)NC[C@@H]1CCN1CCOC(c1ccc(F)cc1)c1ccc(F)cc1` [CNS-19], in experiment [2], the “IC50(sAPPβ)” value was “inactive”.

In the case of `O=C(CCc1ccccc1)NC[C@@H]1CCCN1C(c1ccc(F)cc1)c1ccc(F)cc1` [CNS-26], the IC50 in experiment [2] was 32.1 µM.

On to `NC[C@@H]1CCCN1C(c1ccc(F)cc1)c1ccc(F)cc1` [CNS-25], for which the IC50 in experiment [2] came out at 31.4 µM.

As to `NC(=O)[C@@H]1CCCCN1CCOC(c1ccc(F)cc1)c1ccc(F)cc1` [CNS-15], the “IC50(sAPPβ)” value in experiment [2] was “inactive”.

As for `NC(=O)[C@H]1CCCN1CCOC(c1ccc(F)cc1)c1ccc(F)cc1` [CNS-11], in experiment [2], the “IC50(sAPPβ)” value is “inactive”.

Consider `Fc1ccc(C(c2ccc(F)cc2)N2CCC[C@H]2CNCCCc2ccccc2)cc1` [CNS-27], for which the IC50 in experiment [2] was found to be 10.2 µM.

`NC[C@@H]1CCCCN1CCOC(c1ccc(F)cc1)c1ccc(F)cc1` [CNS-12]: the IC50 in experiment [2] is more than 50 µM.

On to `NC(=O)[C@@H]1CCCN1C(c1ccc(F)cc1)c1ccc(F)cc1` [CNS-24], for which, in experiment [2], the “IC50(sAPPβ)” value was “inactive”.

On to `Fc1ccc(C(OCCN2CC[C@H]2CNCCCc2ccccc2)c2ccc(F)cc2)cc1` [CNS-20], for which the “IC50(sAPPβ)” value in experiment [2] was “inactive”.

For the origin of these results see patent US20110071124A1, “Compounds that Inhibit Production of sAPPB and AB and Uses Thereof” (The Trustees of Columbia University in the City of New York, priority 2008, published 2011).
